What was measured:
Format in all cases: cell-based
[1] = test system: ovarian (SKOV3) cell line; assay: Antiproliferative activity, SKOV3; conditions: Homo sapiens, SK-OV-3
breast (MCF-7) cell line = assay: Antiproliferative activity, MCF-7; conditions: Homo sapiens, MCF7; MCF-7 breast cell line
[2] = test system: multi-drug resistant (MDR) cell line (NCI/ADR), over-expresses P-glycoprotein; assay: Antiproliferative activity, NCI/ADR; conditions: Homo sapiens, NCI/ADR-RES
[3] = test system: wide range of cell lines, including breast (MCF-7), ovarian (SKOV3) and MDR (NCI/ADR); assay: Antiproliferative assays over a series of cell lines (statements in words); conditions: wide range of cell lines incl. MCF-7, SKOV3, NCI/ADR

Row | SMILES | IC50 [1] | IC50 (breast (MCF-7) cell line) | IC50 [2] | Antiproliferative activity in words [3]
1 | CC/C=C\C(C)[C@H](OC(N)=O)[C@@H](C)[C@H](O)[C@@H](C)C/C(C)=C\[C@H](C)[C@@H](O)C(C)/C=C\c1ccc2c(c1)N(COC)C(=O)CO2 (single isomer, unassigned; (+)) [(+)-12] | 2900 nM | 3000 nM | 4000 nM | micromolar activity
2 | C=C/C=C\[C@H](C)[C@H](OC(N)=O)[C@@H](C)[C@H](O)[C@@H](C)C/C(C)=C\[C@H](C)[C@@H](O)[C@@H](C)/C=C\[C@@H](O)CC1OC(=O)[C@H](C)[C@@H](O)[C@H]1C (single isomer, unassigned; (+)) [(+)-Discodermolide 1, (+)-discodermolide, reference compound] | 25 nM | 26 nM | 260 nM | –
3 | CC/C=C\C(C)[C@H](OC(N)=O)[C@@H](C)[C@H](O)[C@@H](C)C/C(C)=C\[C@H](C)[C@@H](O)C(C)/C=C\c1ccc2oc(=O)ccc2c1 (single isomer, unassigned; (+)) [(+)-9] | 1800 nM | 1600 nM | 3300 nM | micromolar activity
4 | CC/C=C\C(C)[C@H](OC(N)=O)[C@@H](C)[C@H](O)[C@@H](C)C/C(C)=C\[C@H](C)[C@@H](O)C(C)/C=C\c1ccc2ccc(=O)oc2c1 (single isomer, unassigned; (+)) [(+)-8] | 35 nM | 15 nM | 230 nM | nanomolar activity equivalent to (+)-1 and (+)-6
5 | CC/C=C\C(C)[C@H](OC(N)=O)[C@@H](C)[C@H](O)[C@@H](C)C/C(C)=C\[C@H](C)[C@@H](O)C(C)/C=C\c1ccc2c(c1)NC(=O)CO2 (single isomer, unassigned; (-)) [(−)-10] | 790 nM | 430 nM | 840 nM | micromolar activity
6 | CC/C=C\C(C)[C@H](OC(N)=O)[C@@H](C)[C@H](O)[C@@H](C)C/C(C)=C\[C@H](C)[C@@H](O)C(C)/C=C\c1ccc2c(c1)N(C)C(=O)CO2 (single isomer, unassigned; (+)) [(+)-11] | 2400 nM | 1600 nM | 3200 nM | micromolar activity
7 | C=C/C=C\C(C)[C@H](OC(N)=O)[C@@H](C)[C@H](O)[C@@H](C)C/C(C)=C\[C@H](C)[C@@H](O)C(C)/C=C\c1ccc2ccc(=O)oc2c1 (single isomer, unassigned; (+)) [(+)-6] | 44 nM | 12 nM | 190 nM | nanomolar activity similar to (+)-discodermolide 1

— patent US8193241B2, “Discodermolide analogues and methods of their use” (The Trustees Of The University Of Pennsylvania, priority 2007, dated 2012)
